The source of these data is patent US20040147452A1, “Non-amphoteric glutathione derivative compositions for tropical application” (priority 2002, published 2004).

Like-named read-outs stand apart in the source and are kept apart here.

For assay [1], the system named is X-linked ichthyosis with severe dry skin. Conditions: 3% cream under test chambers on forearm, subject. The method, then: A solution containing a non-amphoteric glutathione derivative was prepared. N-Acetyl-glutathione diethyl ester 3 g was dissolved in warm propylene glycol 17 ml, and the solution was mixed with 80 g oil-in-water cream base or hydrophilic ointment. The cream contained 3% non-amphoteric N-acetyl-glutathione diethyl ester.
A subject who had X-linked ichthyosis with severe dry skin participated in this study. Test spots were I cm square sites on extensor surface of forearm, a grid pattern formed by Hayes Test Chambers on Hayes adhesive strips. Each test chamber contained a square piece of filter paper which was fully saturated with the non-amphoteric glutathione derivative cream. Test chambers were impressed on the skin to leave outlines which were marked with SANFORD® SHARPIE® permanent marker. Sites were re-marked at each successive application of the test cream. Chambers were removed twice weekly, and replaced with a new adhesive strip of chambers with filter paper saturated with the test cream. The test was carried out for two weeks.

The test system of another assay is forearm skin. Particulars: 5% solution with L-arginine; for increase in skin thickness: forearm. The protocol:
The combined thickness of two whole-skin layers including thickness of the two hinge leaves was measured with micrometer calipers. The thickness of the two hinge leaves was subtracted to determine the actual thickness of two whole-skin layers. Triplicate measurements on treated sites were done and an average number was used for calculation of the skin thickness.
The solution thus prepared contained 5% non-amphoteric glutathione derivative. For comparative study, glutathione 5 g and L-arginine 1 g were dissolved in 94 ml solution prepared from water 70 parts and propylene glycol 30 parts. The solution thus prepared contained 5% amphoteric glutathione.
A subject, applied topically twice daily the above 5% amphoteric glutathione solution to their left forearm and 5% non-amphoteric glutathione derivative to their right forearm for four weeks.
A solution containing a non-amphoteric glutathione derivative was prepared. […] The solution thus prepared contained 5% non-amphoteric glutathione derivative.
A subject, applied topically twice daily the above 5% non-amphoteric glutathione derivative to their right forearm for eight weeks.
A subject, applied topically twice daily the above 5% non-amphoteric glutathione derivative to their left forearm for eight weeks.

The next assay relates to chronic nummular eczema. Particulars: 10% cream of Preparation Example 2, topically twice daily for two days, subject, right lower leg. The protocol:
A solution containing a non-amphoteric glutathione derivative was prepared. […] The solution was mixed uniformly with 70 g cream base.

The mark [2] stands for this setting: topically twice daily for four weeks, subject.

For `CCOC(=O)CNC(=O)[C@H](CS)NC(=O)CC[C@H](NC(C)=O)C(=O)OCC` [N-acetyl-glutathione diethyl ester, N-Acetyl-glutathione diethyl ester], the “clinical evaluation, improvement of rough and scaly skin” value in assay [1] (after one week) turned out to be 90%. Besides, in assay [1] (after two weeks), the “appearance of severe dry skin” value is “smooth and normal-looking”.

In the case of `COC(=O)CNC(=O)[C@H](CS)NC(=O)CC[C@H](N)C(=O)OC.Cl` [glutathione dimethyl ester, Glutathione dimethyl ester hydrochloride], the “appearance of treated forearm skin” value in the assay on forearm skin (topically twice daily for eight weeks, one subject per example) was “more firm, smooth, plump and minimally wrinkled when lifted”. Moreover, in the assay with forearm skin (setting [2]), the “increase in skin thickness” value turned out to be 10%; the “appearance of treated forearm skin” value was “more firm, smooth, plump and minimally wrinkled when lifted”. For the same compound, the “areas of the eczematous lesions reduced” value with chronic nummular eczema was 75%.

As for `N[C@@H](CCC(=O)N[C@@H](CS)C(=O)NCC(=O)O)C(=O)O` [glutathione], in the assay on forearm skin (setting [2]), the “increase in skin thickness” value is recorded as “no change”; the “appearance of treated forearm skin” value is “still loose, relatively thin and wrinkled when lifted”.
